Laboratory results: the CheMixHub viscosity set

Assay: xn = mol fraction of the nth substance listed

ClC1CCCCC1 + C1CCOCC1
viscosity [mPa·s], 101.3 kPa
Details | x2 = 0.1031 | x2 = 0.2 | x2 = 0.3037 | x2 = 0.4038 | x2 = 0.4996 | x2 = 0.6036 | x2 = 0.6992 | x2 = 0.8038 | x2 = 0.9034
298.15 K | 1.459 | 1.364 | 1.27 | 1.188 | 1.114 | 1.04 | 0.9774 | 0.9135 | 0.8561
313.15 K | 1.141 | 1.073 | 1.002 | 0.9418 | 0.8879 | 0.8332 | 0.7853 | 0.7364 | 0.6928

CC1CCC(=O)O1 (configuration not stated) + O
viscosity [mPa·s], 101 kPa
Details | x1 = 0.0503 | x1 = 0.0995 | x1 = 0.1997 | x1 = 0.2994 | x1 = 0.3997 | x1 = 0.499 | x1 = 0.5994 | x1 = 0.701 | x1 = 0.7995 | x1 = 0.8996
298.15 K | 1.405 | 1.747 | 2.113 | 2.204 | 2.169 | 2.055 | 1.998 | 1.902 | 1.856 | 1.823
303.15 K | 1.243 | 1.533 | 1.852 | 1.939 | 1.921 | 1.831 | 1.786 | 1.719 | 1.689 | 1.671
308.15 K | 1.107 | 1.357 | 1.638 | 1.721 | 1.714 | 1.65 | 1.612 | 1.566 | 1.545 | 1.538
313.15 K | 0.962 | 1.193 | 1.449 | 1.529 | 1.531 | 1.487 | 1.454 | 1.426 | 1.408 | 1.407
318.15 K | 0.8912 | 1.089 | 1.31 | 1.384 | 1.392 | 1.36 | 1.342 | 1.32 | 1.311 | 1.314

OCC1CC1 + CC(C)CC(C)(C)C
viscosity [mPa·s], 101 kPa
Details | x1 = 0.0991 | x1 = 0.1991 | x1 = 0.3007 | x1 = 0.4013 | x1 = 0.5 | x1 = 0.6004 | x1 = 0.7007 | x1 = 0.8004 | x1 = 0.9002
293.15 K | 0.535 | 0.592 | 0.676 | 0.801 | 0.97 | 1.214 | 1.561 | 2.068 | 2.803
298.15 K | 0.505 | 0.556 | 0.63 | 0.74 | 0.886 | 1.098 | 1.398 | 1.831 | 2.459
303.15 K | 0.476 | 0.522 | 0.587 | 0.684 | 0.811 | 0.997 | 1.257 | 1.632 | 2.168
308.15 K | 0.45 | 0.491 | 0.549 | 0.634 | 0.746 | 0.908 | 1.136 | 1.46 | 1.921
313.15 K | 0.425 | 0.462 | 0.514 | 0.59 | 0.688 | 0.831 | 1.029 | 1.31 | 1.709
318.15 K | 0.396 | 0.431 | 0.478 | 0.546 | 0.633 | 0.759 | 0.934 | 1.181 | 1.527
323.15 K | 0.38 | 0.411 | 0.454 | 0.514 | 0.59 | 0.701 | 0.854 | 1.071 | 1.372

C[N+](=O)[O-] + CC#N
101 kPa
Details | viscosity [mPa·s]
298.15 K, x1 = 0.107 | 0.3665
298.15 K, x1 = 0.206 | 0.389
298.15 K, x1 = 0.301 | 0.4121
298.15 K, x1 = 0.398 | 0.4366
298.15 K, x1 = 0.502 | 0.4646
298.15 K, x1 = 0.598 | 0.4917
298.15 K, x1 = 0.7 | 0.5223
298.15 K, x1 = 0.792 | 0.5508
298.15 K, x1 = 0.895 | 0.5844
298.15 K, x2 = 0.1433 | 0.569
298.15 K, x2 = 0.3891 | 0.495
298.15 K, x2 = 0.39 | 0.496
298.15 K, x2 = 0.403 | 0.492
298.15 K, x2 = 0.408 | 0.49
298.15 K, x2 = 0.598 | 0.439
298.15 K, x2 = 0.698 | 0.413
298.15 K, x2 = 0.729 | 0.405
298.15 K, x2 = 0.739 | 0.403
298.15 K, x2 = 0.776 | 0.395
298.15 K, x2 = 0.9346 | 0.359
308.15 K, x2 = 0.1433 | 0.52
308.15 K, x2 = 0.3891 | 0.454
308.15 K, x2 = 0.598 | 0.404
308.15 K, x2 = 0.776 | 0.364
308.15 K, x2 = 0.9346 | 0.333
313.15 K, x1 = 0.107 | 0.3169
313.15 K, x1 = 0.206 | 0.3355
313.15 K, x1 = 0.301 | 0.3546
313.15 K, x1 = 0.398 | 0.3751
313.15 K, x1 = 0.502 | 0.3985
313.15 K, x1 = 0.598 | 0.4211
313.15 K, x1 = 0.7 | 0.4465
313.15 K, x1 = 0.792 | 0.4697
313.15 K, x1 = 0.895 | 0.4974
318.15 K, x2 = 0.1433 | 0.469
318.15 K, x2 = 0.3891 | 0.411
318.15 K, x2 = 0.598 | 0.367
318.15 K, x2 = 0.776 | 0.333
318.15 K, x2 = 0.9346 | 0.305

CCCCC(CC)COP(=O)(O)OCC(CC)CCCC (configuration not stated) + CCCCCCCCO
viscosity [mPa·s], 101 kPa
Details | 303.15 K | 313.15 K | 323.15 K
x1 = 0.0433 | 6.599 | 4.84 | 3.531
x1 = 0.0469 | 6.819 | – | –
x1 = 0.073 | 6.889 | – | –
x1 = 0.0919 | 7.065 | 5.143 | 3.719
x1 = 0.1008 | 7.185 | – | –
x1 = 0.1474 | 7.624 | 5.504 | 3.942
x1 = 0.1532 | 7.958 | – | –
x1 = 0.2125 | 8.316 | 5.948 | 4.214
x1 = 0.276 | 9.907 | – | –
x1 = 0.288 | 9.17 | 6.493 | 4.545
x1 = 0.3227 | 10.59 | – | –
x1 = 0.377 | 10.25 | 7.177 | 4.957
x1 = 0.4481 | 12.38 | – | –
x1 = 0.4848 | 11.66 | 8.068 | 5.489
x1 = 0.5519 | 13.89 | – | –
x1 = 0.6176 | 13.58 | 9.263 | 6.195
x1 = 0.6183 | 14.78 | – | –
x1 = 0.7209 | 16.04 | – | –
x1 = 0.7843 | 16.27 | 10.92 | 7.162
x1 = 0.8137 | 17.09 | – | –
x1 = 0.922 | 18.4 | – | –

C=Cn1cc[n+](CC(N)=O)c1.O=S(=O)([N-]S(=O)(=O)C(F)(F)F)C(F)(F)F + CC#N
viscosity [mPa·s], 100 kPa
Details | 298.15 K | 303.15 K | 308.15 K | 313.15 K | 318.15 K | 323.15 K
x1 = 0.1 | – | 9.97 | 9.16 | 8.17 | 7.74 | 7.02
x1 = 0.201 | 75.29 | 68.64 | 59.58 | 50.56 | – | –
x1 = 0.3026 | – | 246.5 | – | – | – | –
x1 = 0.4011 | 805.9 | 683.3 | 549.2 | – | – | –
